According to patent US5189033A, “Tricyclic heterocycles” (Imperial Chemical Industries PLC, priority 1991, dated 1993):
Like-named read-outs stand apart in the source and are kept apart here.

What was measured:
[1] = target: T1, EP1 receptors (PGE2-induced contractions of the ileum) (Cavia porcellus, UniProt A0A286XHJ6); test: Test (a): in-vitro guinea pig ileum assay, inhibition of PGE2-induced contractions; settings: PGE2-induced contraction of guinea pig ileum, read-out: pA2 value (converted)
T1 construct: ileum was immersed in oxygenated Krebs solution containing indomethacin; from tissue; host or cells: guinea pig ileum
T1 sequence (A0A286XHJ6 1-405): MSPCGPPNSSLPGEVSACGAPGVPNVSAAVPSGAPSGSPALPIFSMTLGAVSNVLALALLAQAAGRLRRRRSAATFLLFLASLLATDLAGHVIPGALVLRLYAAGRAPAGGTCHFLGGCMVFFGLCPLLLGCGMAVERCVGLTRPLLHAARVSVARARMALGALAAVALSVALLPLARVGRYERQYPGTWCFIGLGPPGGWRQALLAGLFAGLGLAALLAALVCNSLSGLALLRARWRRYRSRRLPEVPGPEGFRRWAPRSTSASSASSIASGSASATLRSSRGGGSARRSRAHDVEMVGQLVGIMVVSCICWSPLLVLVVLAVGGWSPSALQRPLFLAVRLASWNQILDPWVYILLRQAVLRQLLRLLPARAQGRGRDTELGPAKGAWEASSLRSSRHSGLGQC
Protocol: (a) an in-vitro guinea pig ileum assay which assesses the inhibitory properties of a test compound against PGE2 -induced contractions of the ileum; ileum was immersed in oxygenated Krebs solution containing indomethacin (4 μg/ml) and atropine (1 μM) and which was maintained at 37° C.; the ileum was subject to a resting tension of 1 g; a control dose response curve for PGE2 -induced contraction of the ileum was obtained; test compound (dissolved in dimethylsulphoxide) was added to the Krebs solution and a dose response curve for the PGE2 -induced contraction of the ileum in the presence of the test compound was obtained; the pA2 value for the test compound was calculated;
Prostanoid receptors and in particular receptors for PGE2 have been tentatively characterised by Kennedy et al. (Advances in Prostaglandin, Thromboxane and Leukotriene Research, 1983, 11, 327).

[2] = tested on: writhing induced by the concomitant administration of PGE2 and bradykinin; test: Test (b): in-vivo assay in mice, writhing induced by PGE2 and bradykinin; settings: Mus musculus, oral dosing, read-out: ED50 for antagonism of the writhing response
PGE2 receptors = settings: cited from earlier work
[3] = tested on: writhing induced by the intraperitoneal administration of phenylbenzoquinone; test: Test (c): in-vivo assay in mice, writhing induced by phenylbenzoquinone (PBQ); settings: at 100 mg/kg, oral dosing
From the text: (c) an in-vivo assay in mice which assesses the inhibitory properties of a test compound against writhing induced by the intraperitoneal administration of phenylbenzoquinone (hereinafter PBQ) using the procedure disclosed in European Patent Application No. 0218077.

Structure (SMILES): O=C(O)c1ccc(CN2Cc3ccccc3Oc3ccc(Cl)cc32)cc1 [Example 2, 4-(8-chloro-10,11-dihydrodibenzo[b,f][1,4]oxazepin-10-ylmethyl)-benzoic acid]
- Kb [1]: 100 nM
- ED50 [2]: 19 mg/kg

Structure (SMILES): CC(=O)NNC(=O)N1Cc2ccccc2Oc2ccc(Cl)cc21 [SC-19220]
- block of the effect of PGE2 (PGE2 receptors; cat trachea or chick ileum): not on other tissues
- block of the effect of PGE2 (PGE2 receptors; guinea pig ileum or dog fundus): blocks the effect of PGE2

Structure (SMILES): O=C(O)c1cccc(CN2Cc3ccccc3Oc3ccc(Cl)cc32)c1 [Example 1, 3-(8-chloro-10,11-dihydrodibenzo[b,f]-[1,4]oxazepin-10-ylmethyl)benzoic acid]
- Kb [1]: 39.8 nM
- activity in Test (c) [3]: significant activity
